Experimental findings from patent publication US20230265151A1, “GIP/GLP1 CO-AGONIST COMPOUNDS” (priority 2020, published 2023) are described below.

For experiment [1], the target named is T1, human GLP-1 receptor (hGLP-1R) (Homo sapiens, UniProt P43220).
T1 construct: expressed in transfected cells; crude membranes
As to the kind of experiment: [125I]-GLP-1 binding, SPA with membranes of HEK293 cells expressing hGLP-1R. The settings on record: human GLP-1R; geometric mean (SEM, n); read-out: Binding Affinity Ki, nM (SEM, n) hGLP-1R.

Experiment [2] deals with T2, human GIP receptor (hGIPR) (Homo sapiens, UniProt P48546).
T2 construct: expressed in transfected cells; crude membranes
T2 sequence (P48546 22-466): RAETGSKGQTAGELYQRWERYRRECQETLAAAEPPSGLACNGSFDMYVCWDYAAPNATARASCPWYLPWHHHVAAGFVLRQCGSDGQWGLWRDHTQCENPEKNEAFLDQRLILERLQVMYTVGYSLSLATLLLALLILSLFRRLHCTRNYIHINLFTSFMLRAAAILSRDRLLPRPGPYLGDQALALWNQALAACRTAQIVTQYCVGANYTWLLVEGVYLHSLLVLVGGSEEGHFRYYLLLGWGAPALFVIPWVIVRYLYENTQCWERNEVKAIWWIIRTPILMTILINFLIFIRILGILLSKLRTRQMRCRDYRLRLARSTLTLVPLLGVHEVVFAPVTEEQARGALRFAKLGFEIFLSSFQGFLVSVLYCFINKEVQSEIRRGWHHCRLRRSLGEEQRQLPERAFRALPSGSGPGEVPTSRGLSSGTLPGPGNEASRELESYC
The experiment in a line: [125I]-GIP binding, SPA with membranes of CHO cells expressing hGIPR.

Experiment [3] concerns the target T3, hGIPR (Homo sapiens, UniProt P48546).
T3 construct: expressed in transfected cells
T3 sequence (P48546 22-466): T2 sequence (P48546 22-466)
As to the kind of experiment: Functional cAMP formation (HTRF) in HEK-293 clonal cells expressing hGIPR, 0.1% bovine casein, without or with 1.0% human serum albumin. Format: cell-based. The note with it: for EC50: geometric mean. The gist of the method:
(§1)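 Readings of the HTRF 665/620 nm ratio, which falls as cAMP rises, were converted to nM cAMP using a standard curve after 30 min peptide exposure at 37° C.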
(cAMP levels reflect the balance of adenylyl cyclase and phosphodiesterase activity.)

Experiment [4] deals with T4, hGCGR (Homo sapiens, UniProt P47871).
T4 construct: expressed in transfected cells
T4 sequence (P47871 26-477): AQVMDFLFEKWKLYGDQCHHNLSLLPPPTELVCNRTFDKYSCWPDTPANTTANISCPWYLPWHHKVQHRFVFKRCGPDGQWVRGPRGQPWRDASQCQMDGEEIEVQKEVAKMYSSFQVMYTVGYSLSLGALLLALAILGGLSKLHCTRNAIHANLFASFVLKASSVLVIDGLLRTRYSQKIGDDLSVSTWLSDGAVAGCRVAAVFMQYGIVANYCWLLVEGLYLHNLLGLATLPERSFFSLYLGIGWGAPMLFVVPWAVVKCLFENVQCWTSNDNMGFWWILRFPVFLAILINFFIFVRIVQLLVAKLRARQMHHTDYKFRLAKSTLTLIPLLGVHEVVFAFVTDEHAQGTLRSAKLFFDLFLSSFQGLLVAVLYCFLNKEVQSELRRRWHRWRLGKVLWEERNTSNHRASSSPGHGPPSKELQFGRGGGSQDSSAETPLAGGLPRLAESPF
As to the kind of experiment: Functional cAMP formation (HTRF) in HEK-293 clonal cells expressing hGCGR, 0.1% bovine casein, without or with 1.0% human serum albumin. The format is cell-based. Put shortly: as §1

The target of experiment [5] is hGLP-1R (Homo sapiens, UniProt P43220). The experiment in a line: Functional cAMP formation (HTRF) in HEK-293 clonal cells expressing hGLP-1R, 0.1% bovine casein, without or with 1.0% human serum albumin. The format is cell-based. Details: expressed in transfected cells. The note with it: for EC50: 37° C. The gist of the method: as §1
Sequence of hGLP-1R (P43220 24-463): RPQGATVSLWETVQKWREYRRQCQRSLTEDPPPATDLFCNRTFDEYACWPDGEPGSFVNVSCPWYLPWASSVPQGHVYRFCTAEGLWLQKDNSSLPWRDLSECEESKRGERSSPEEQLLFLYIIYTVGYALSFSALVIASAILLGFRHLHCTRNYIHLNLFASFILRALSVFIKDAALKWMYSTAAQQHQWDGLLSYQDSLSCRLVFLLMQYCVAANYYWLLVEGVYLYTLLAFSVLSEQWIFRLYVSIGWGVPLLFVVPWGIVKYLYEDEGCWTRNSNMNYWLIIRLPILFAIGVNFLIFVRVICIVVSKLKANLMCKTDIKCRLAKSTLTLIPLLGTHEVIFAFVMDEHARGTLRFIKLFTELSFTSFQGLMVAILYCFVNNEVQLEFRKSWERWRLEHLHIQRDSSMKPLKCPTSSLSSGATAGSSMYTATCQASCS
The mark [6] stands for this setting: human GIPR, geometric mean (SEM, n), read-out: Binding Affinity Ki, nM (SEM, n) hGIPR.
The mark [7] stands for this setting: 0.1% bovine casein and 1.0% human serum albumin, 37° C., read-out: hGIPR EC50, nM (SEM, n).
Setting [8] is: HEK293, 0.1% bovine casein and 1.0% human serum albumin, 37° C., percent of maximal response to GIP(1-42)NH2, read-out: hGIPR Emax, % ± SEM.
The mark [9] stands for this setting: 0.1% bovine casein and 1.0% human serum albumin, 37° C., geometric mean, read-out: hGCGR EC50, nM (SEM, n).
[10] abbreviates: cAMP, incubated at 37° C., 0.1% bovine casein (no human serum albumin), geometric mean, read-out: hGCGR EC50, nM (SEM, n).

Broadly, the Ki is a measure of affinity in units of concentration, obtained from inhibition or displacement. Usually Emax stands for the size of the effect at its maximum, as opposed to the concentration needed. A word on the EC50: it is the midpoint of the concentration-response curve.

Read-outs that look alike come from different tables or passages of the source. A value given as a limit tells only on which side of the number the result lay.

T1 sequence (P43220 24-463): as above

Turning to `CCCCCCCCCCCC(=O)N[C@@H](CCC(=O)NCCOCCOCC(=O)NCCOCCOCC(=O)NCCOCCOCC(=O)NCCCC[C@H](NC(=O)[C@H](CCCN)NC(=O)[C@H](CC(=O)O)NC(=O)[C@H](CC(C)C)NC(=O)[C@](C)(CC(C)C)NC(=O)[C@@H](NC(=O)C(C)(C)NC(=O)[C@H](CCCCNC(=O)COCCOCCNC(=O)COCCOCCNC(=O)COCCOCCNC(=O)CC[C@H](NC(=O)CCCCCCCCCCC)C(=O)O)NC(=O)[C@H](CC(=O)O)NC(=O)[C@H](CO)NC(=O)[C@@H](NC(=O)[C@](C)(Cc1ccccc1F)NC(=O)[C@@H](NC(=O)CNC(=O)[C@H](CCC(=O)O)NC(=O)C(C)(C)NC(=O)[C@@H](N)Cc1ccc(O)cc1)[C@@H](C)O)[C@@H](C)O)[C@@H](C)CC)C(=O)N[C@@H](C)C(=O)N[C@@H](CCC(N)=O)C(=O)NC(C)(C)C(=O)N[C@@H](CCCN)C(=O)N[C@@H](Cc1ccccc1)C(=O)N[C@H](C(=O)N[C@H](CCC(=O)O)C(=O)N[C@@](C)(Cc1ccc(O)cc1)C(=O)N[C@@H](CC(C)C)C(=O)N[C@H](C(=O)N[C@@H](CCC(=O)O)C(=O)NCC(=O)NCC(=O)N1CCC[C@H]1C(=O)N[C@@H](CO)C(=O)N[C@@H](CO)C(=O)NCC(=O)N[C@@H](C)C(=O)N1CCC[C@H]1C(=O)N1CCC[C@H]1C(=O)N1CCC[C@H]1C(=O)N[C@@H](CO)C(N)=O)[C@@H](C)CC)[C@@H](C)CC)C(=O)O` [Example 432], the Ki in experiment [1] is 0.134 nM; in experiment [2] (setting [6]) it was 0.0134 nM. Further, the Emax in experiment [3] (HEK293, cAMP, 37° C., 0.1% bovine casein and 1.0% human serum albumin, percent of maximal response to GIP(1-42)NH2, read-out: hGIPR Emax, % ± SEM) was 96.7%. Also, the half-maximal effective concentration (EC50) in experiment [3] (cAMP, 37° C., 0.1% bovine casein (no human serum albumin), read-out: hGIPR EC50, nM (SEM, n)) was 0.00602 nM; in experiment [4] (cAMP, 37° C., 0.1% bovine casein (no human serum albumin), geometric mean, read-out: hGCGR EC50, nM (SEM, n)) it was over 9950 nM; in experiment [4] (cAMP, 37° C., 0.1% bovine casein and 1.0% human serum albumin, geometric mean (SEM, n), read-out: hGCGR EC50, nM (SEM, n)), over 9950 nM; in experiment [5] (cAMP, 0.1% bovine casein (no human serum albumin), geometric mean, read-out: hGLP-1R EC50, nM (SEM, n)), 0.0549 nM; in experiment [5] (cAMP, 0.1% bovine casein and 1.0% human serum albumin, geometric mean (SEM, n), read-out: hGLP-1R EC50, nM (SEM, n)), 1.28 nM.
For `CC[C@H](C)[C@H](NC(=O)[C@H](CC(C)C)NC(=O)[C@](C)(Cc1ccc(O)cc1)NC(=O)[C@@H](CCC(=O)O)NC(=O)[C@@H](NC(=O)[C@H](Cc1ccccc1)NC(=O)[C@H](CCC(=O)O)NC(=O)C(C)(C)NC(=O)[C@H](CCC(N)=O)NC(=O)[C@H](C)NC(=O)[C@H](CCCCNC(=O)COCCOCCNC(=O)COCCOCCNC(=O)CC[C@H](NC(=O)CCCCCCCCCCCCC(=O)O)C(=O)O)NC(=O)[C@H](CCCN)NC(=O)[C@H](CC(=O)O)NC(=O)[C@H](CC(C)C)NC(=O)[C@](C)(CC(C)C)NC(=O)[C@@H](NC(=O)C(C)(C)NC(=O)[C@H](Cc1ccc(O)cc1)NC(=O)[C@H](CC(=O)O)NC(=O)[C@H](CO)NC(=O)[C@@H](NC(=O)[C@](C)(Cc1ccccc1F)NC(=O)[C@@H](NC(=O)CNC(=O)[C@H](CCC(=O)O)NC(=O)C(C)(C)NC(=O)[C@@H](N)Cc1ccc(O)cc1)[C@@H](C)O)[C@@H](C)O)[C@@H](C)CC)[C@@H](C)CC)C(=O)N[C@@H](CCC(=O)O)C(=O)NCC(=O)NCC(=O)N[C@@H](CCCCNC(=O)COCCOCCNC(=O)COCCOCCNC(=O)CC[C@H](NC(=O)CCCCCCCCCCCCC(=O)O)C(=O)O)C(=O)N[C@@H](CO)C(=O)N[C@@H](CO)C(=O)NCC(=O)N[C@@H](C)C(=O)N1CCC[C@H]1C(=O)N1CCC[C@H]1C(=O)N1CCC[C@H]1C(=O)N[C@@H](CO)C(N)=O` [Example 50], the Ki in experiment [1] was 0.876 nM; in experiment [2] (setting [6]), 0.0296 nM. Further, the EC50 in experiment [3] (setting [7]) is 1.81 nM; in experiment [3] (cAMP, incubated at 37° C., 0.1% bovine casein (no human serum albumin), read-out: hGIPR EC50, nM (SEM, n)), 0.0168 nM; in experiment [4] (setting [9]), over 9950 nM; in experiment [4] (setting [10]), over 9950 nM. Besides, the maximal effect (Emax) is 91.4 ± 4.2% in experiment [3] (setting [8]) and 94.7 ± 1.77% in experiment [3] (HEK293, percent of maximal response to GIP(1-42)NH2, 37° C., 0.1% bovine casein, arithmetic mean, read-out: hGIPR Emax, % ± SEM).
As to `CCCCCCCCCCCCCC(=O)N[C@@H](CCC(=O)NCCOCCOCC(=O)NCCOCCOCC(=O)NCCCC[C@H](NC(=O)CNC(=O)CNC(=O)[C@H](CCC(=O)O)NC(=O)[C@@H](NC(=O)[C@H](CC(C)C)NC(=O)[C@](C)(Cc1ccc(O)cc1)NC(=O)[C@@H](CCC(=O)O)NC(=O)[C@@H](NC(=O)[C@H](Cc1ccccc1)NC(=O)[C@H](CCC(=O)O)NC(=O)C(C)(C)NC(=O)[C@H](CCC(N)=O)NC(=O)[C@H](C)NC(=O)[C@H](CCCCNC(=O)COCCOCCNC(=O)COCCOCCNC(=O)CC[C@H](NC(=O)CCCCCCCCCCCCC)C(=O)O)NC(=O)[C@H](CCCN)NC(=O)[C@H](CC(=O)O)NC(=O)[C@H](CC(C)C)NC(=O)[C@](C)(CC(C)C)NC(=O)[C@@H](NC(=O)[C@H](CO)NC(=O)[C@H](Cc1ccncc1)NC(=O)[C@H](CC(=O)O)NC(=O)[C@H](CO)NC(=O)[C@@H](NC(=O)[C@](C)(Cc1ccccc1F)NC(=O)[C@@H](NC(=O)CNC(=O)[C@H](CCC(=O)O)NC(=O)C(C)(C)NC(=O)[C@@H](N)Cc1ccc(O)cc1)[C@@H](C)O)[C@@H](C)O)[C@@H](C)CC)[C@@H](C)CC)[C@@H](C)CC)C(=O)N[C@@H](CO)C(=O)N[C@@H](CO)C(=O)NCC(=O)N[C@@H](C)C(=O)N1CCC[C@H]1C(=O)N1CCC[C@H]1C(=O)N1CCC[C@H]1C(=O)N[C@@H](CO)C(N)=O)C(=O)O` [Example 8], the Ki in experiment [2] (setting [6]) amounted to 0.024 nM. Also, the EC50 was 0.635 nM in experiment [3] (setting [7]); over 9950 nM in experiment [4] (setting [9]); over 9950 nM in experiment [4] (setting [10]); 8 nM in experiment [5] (0.1% bovine casein and 1.0% human serum albumin, geometric mean, read-out: hGLP-1R EC50, nM (SEM, n)). For the same compound, in experiment [3] (setting [8]), the maximum response (Emax) turned out to be 91.3 ± 3.11%.
Take `CC[C@H](C)[C@H](NC(=O)[C@H](CC(C)C)NC(=O)[C@](C)(Cc1ccc(O)cc1)NC(=O)[C@H](CCCCNC(=O)COCCOCCNC(=O)COCCOCCNC(=O)CC[C@H](NC(=O)CCCCCCCCCOc1ccc(C(=O)O)cc1)C(=O)O)NC(=O)[C@@H](NC(=O)[C@H](Cc1ccccc1)NC(=O)[C@H](CCCN)NC(=O)C(C)(C)NC(=O)[C@H](CCC(N)=O)NC(=O)[C@H](C)NC(=O)[C@H](CCC(N)=O)NC(=O)[C@H](CCCN)NC(=O)[C@H](CC(=O)O)NC(=O)[C@H](CC(C)C)NC(=O)[C@](C)(CC(C)C)NC(=O)[C@@H](NC(=O)C(C)(C)NC(=O)[C@H](Cc1ccc(O)cc1)NC(=O)[C@H](CC(=O)O)NC(=O)[C@H](CO)NC(=O)[C@@H](NC(=O)[C@](C)(Cc1ccccc1F)NC(=O)[C@@H](NC(=O)CNC(=O)[C@H](CCC(=O)O)NC(=O)C(C)(C)NC(=O)[C@@H](N)Cc1ccc(O)cc1)[C@@H](C)O)[C@@H](C)O)[C@@H](C)CC)[C@@H](C)CC)C(=O)N[C@@H](CCCCNC(=O)COCCOCCNC(=O)COCCOCCNC(=O)CC[C@H](NC(=O)CCCCCCCCCOc1ccc(C(=O)O)cc1)C(=O)O)C(=O)NCC(=O)NCC(=O)N1CCC[C@H]1C(=O)N[C@@H](CO)C(=O)N[C@@H](CO)C(=O)NCC(=O)N[C@@H](C)C(=O)N1CCC[C@H]1C(=O)N1CCC[C@H]1C(=O)N1CCC[C@H]1C(=O)N[C@@H](CO)C(N)=O` [Example 492]: the Ki in experiment [2] was found to be 0.0264 nM. Also, the Emax in experiment [3] (HEK293, read-out: hGIPR Emax, % ± SEM, cAMP, 37° C., 0.1% bovine casein and 1.0% human serum albumin, percent of maximal response to GIP(1-42)NH2) was 88.7%; in experiment [5] (HEK293, read-out: hGLP-1R Emax, % ± SEM, cAMP, 37° C., 0.1% bovine casein, percent of maximal response to GLP-1(7-36)NH2, arithmetic mean), 117%. Also, the EC50 is 0.0125 nM in experiment [3] (hGIPR EC50, nM (SEM, n), cAMP, 37° C., 0.1% bovine casein (no human serum albumin)); over 9950 nM in experiment [4] (hGCGR EC50, nM (SEM, n), cAMP, 37° C., 0.1% bovine casein (no human serum albumin), geometric mean); over 9950 nM in experiment [4] (hGCGR EC50, nM (SEM, n), cAMP, 37° C., 0.1% bovine casein and 1.0% human serum albumin, geometric mean (SEM, n)); 0.143 nM in experiment [5] (hGLP-1R EC50, nM (SEM, n), cAMP, 0.1% bovine casein (no human serum albumin), geometric mean).
